Experimental data taken from article PMC6492180, “Cytome micronucleus assays with a metabolically competent human derived liver cell line (Huh6): A promising approach for routine testing of chemicals?” (Environmental and Molecular Mutagenesis, 2018).
Like-named read-outs stand apart in the source and are kept apart here.

What was measured:
Huh6 cells = tested on: Huh6 cells
Experimental: All experiments were performed in duplicate.
3.8–4.0 × 10^5 cells per well were seeded into 6‐well plates with 3 mL of RPMI (4% FBS) for 12 hr, then dilutions of stock solutions of the diagnostic mutagens were added for different time periods (4, 24, and 48 hr). In each experimental series solvent controls were included. Subsequently, the cells were washed twice with 3.0 mL medium. […] Finally, the cells were washed and trypsinised. Afterwards the cells were washed twice with 8.0 mL RPMI and collected on slides by cytocentrifugation (600 rpm, 5 min). The slides were air dried, fixed, and stained with DiffQuick according to the instructions of the manufacturer. For each experimental point, two cultures were tested per dose. From each culture ≥1,000 BN cells were evaluated under 400‐fold magnification (Nikon Photophot‐FXA, Tokyo, Japan). At least 2,000 binucleated cells were analyzed per dose for the determination of the different nuclear anomalies (MN, NBuds, and NBs).
The experiments were performed as described in the previous chapter. The cells were exposed only to one dose of the different mutagens and were cultivated after the seeding in 6‐well plates which contained 4% or 10% FBS in RPMI, respectively.
Data were evaluated by generalized linear model with Poisson counts. Chi‐square tests for overdispersion were applied. […] P values ≤0.05 were considered statistically significant.
^150-60 000 cells were seeded in 6 well plates with 3 ml RPMI (4% FBS), subsequently different solutions of the test compound (dissolved in medium) were added. After treatment for different time periods, the cells was washed and processed as described in the Material and Method section. […] From each culture 1000 binoculated cells were evaluated. BN-MN – number of micronucleated cells; MN - total number of micronuclei; CBPI – cytokinesis-block proliferation index
^1The experiments were conducted essentially as described in the footnote of Table S1A-I. *p≤0.05

Human lymphocytes = settings: cited from earlier work
HepaRG = settings: HepaRG; ref Josse et al., 2012; cited from earlier work

In the case of `OO` [H2O2, Hydrogen peroxide], the “Change of MN rates after 48 hr treatment (in words)” value (Huh6 cells) is reported as “slight decrease”, the “Induction of MN after 4 hr treatment (in words)” value (Huh6 cells) is reported as “did not cause an effect” and the “Lowest effective concentration (LOEC) in micronucleus experiments” value (Huh6 cells) is reported as 10.0 µM. For the same molecule, the “MN effects after 24 hr (or longer) compared with 4 hr treatment (in words)” value (Huh6 cells) was “more pronounced effects”, the “MN frequencies with 10% serum compared with 4% serum (in words)” value (Huh6 cells) was “not increased” and the “Lowest effective concentration (LOEC) in micronucleus experiments” value (Human lymphocytes) was 100 (Andreoli et al., 1999) μM.
For `ClC(Cl)=C(c1ccc(Cl)cc1)c1ccc(Cl)cc1` [dichlorodiphenyldichloroethylene], the “MN formation with the longer exposure time, treatment for 1 or 7 days (in words)” value (HepaRG) is given as “no such effects”.
In the case of `COC(=O)Nc1nc2cc(C(=O)c3cccs3)ccc2[nH]1` [noctazole], the “MN formation with the longer exposure time, treatment for 1 or 7 days (in words)” value (HepaRG) is listed as “no such effects”.
For `COc1cc([C@@H]2c3cc4c(cc3[C@@H](O[C@@H]3O[C@@H]5CO[C@@H](C)O[C@H]5[C@H](O)[C@H]3O)[C@H]3COC(=O)[C@H]23)OCO4)cc(OC)c1O` [Etoposide], the CBPI (Huh6 cells; 4% FBS, 4hrs, 0.01 µg/ml) was 1.8 ± 0.1, the CBPI (Huh6 cells; 4% FBS, 4hrs, 0.05 µg/ml) was 1.8 ± 0.1 and the CBPI (Huh6 cells; 4% FBS, 4hrs, 0.1 µg/ml) was 1.8 ± 0.1. It also gave a CBPI (Huh6 cells; 4% FBS, 24hrs, 0.01 µg/ml) of 1.9 ± 0.0, a CBPI (Huh6 cells; 4% FBS, 24hrs, 0.1 µg/ml) of 1.8 ± 0.0 and a CBPI (Huh6 cells; 4% FBS, 48hrs, 0.01 µg/ml) of 1.7 ± 0.0. For the same molecule, the CBPI (Huh6 cells; 4% FBS, 48hrs, 0.1 µg/ml) was 1.1 ± 0.0 and the CBPI (Huh6 cells; 10% FBS, 24 hr treatment, 0.1 µg/ml) was 1.9 ± 0.0.
